Where two headings read alike, the source gives them in different places.
How the values were obtained:
Format in all cases: cell-based
[1] = tested on: Respiratory syncytial virus recombinant with luciferase (RSV-Luc5); test: HEp-2 RSV-Luc5 384-well assay (EC50 RSVFLUC Hep2-384 v2), Example V; settings: human respiratory syncytial virus, HEp-2, 72 h, read-out: EC50 RSV FLuc Hep-2 384 V2 (per Ex. V)
Description: Example V: HEp-2 RSV-Luc5 384-Well Assay (EC50 RSVFLUC Hep2-384 v2)
HEp-2 cell line was purchased from ATCC (Manassas, VA Cat #CCL-23) and maintained in Dulbecco's […] (DMEM) (Corning, New York, NY, Cat #15-018CM) supplemented with 10% fetal bovine serum (FBS) (Hyclone, Logan, UT, Cat #SH30071-03) and 1× Penicillin-Streptomycin-L-Glutamine (Corning, New York, NY, Cat #30-009-C1). Cells were passaged 2 times per week to maintain sub-confluent densities and were used for experiments at passage 5-20. Respiratory syncytial virus recombinant with luciferase (RSV-Luc5) (≥1×107 TCID50/ml) was purchased from Microbiologics (Saint Cloud, MN). Viral replication was determined in HEp-2 cells in the following manner.
(§1) Compounds are prepared in 100% DMSO in 384-well polypropylene plates (Greiner, Monroe, NC, Cat #784201) with 8 compounds per plate in grouped replicates of 4 at 10 serially diluted concentrations (1:3). The serially diluted compounds were transferred to low dead volume Echo plates (Labcyte, Sunnyvale, CA, Cat #LP-0200).
The test compounds were spotted to 384-well assay plates (Greiner, Monroe, NC, Cat #781091) at 200 nL per well. HEp-2 cells were harvested and suspended in DMEM (supplemented with 10% FBS and 1× Penicillin-Streptomycin-L-Glutamine) and seeded to the pre-spotted assay plates at 4,000 cells per well in 30 μL. RSV-Luc5 viruses were diluted in DMEM (supplemented with 10% FBS and 1× Penicillin-Streptomycin-L-(Glutamine) at 200,000 Infectious Units (IU) per mL and 10 μL per well was added to the assay plates containing cells and compounds, for an MOI=0.5. The assay plates were incubated for 3 days at 37° C. and 5% CO2. At the end of incubation, One-Glo reagent (Promega, Madison, WI, Cat #E6120) was prepared. The assay plates and One-Glo reagent were equilibrated to room temperature for at least 15 minutes. 40 μL per well of One-Glo reagent was added and the plates were incubated at room temp for 15 minutes before reading the luminescence signal on an EnVision multimode plate reader (Perkin Elmer, Waltham, MA). Remdesivir was used as positive control and DMSO was used as negative control. Values were normalized to the positive and negative controls (as 0% and 100% replication, respectively) and data was fitted using non-linear regression analysis by Gilead's dose response tool. The EC50 value for each compound was then determined as the concentration reducing the viral replication by 50%.

[2] = tested on: Human Rhinovirus 14 (HRV14); test: H1-HeLa HRV-CTG 384-well assay, HRV14, Example X; settings: Rhinovirus B, 96 h, read-out: EC50 H1-HeLa_HRV 14_HRV-CTG 384-well Assay (per Ex. X)
Description: (§2) Example X: H1-HeLa HRV-CTG 384-Well Assay
(§3) H1-Hela cell line (ATCC, Manassas, VA, Cat #CRL-1958) was maintained in Dulbecco's […] (DMEM) (Corning, New York, NY, Cat #15-018CM) supplemented with 10% fetal bovine serum (FBS) (Hyclone, Logan, UT, Cat #SH30071-03), and 1× Penicillin-Streptomycin-L-Glutamine (Corning, New York, NY, Cat #30-009-CI). Cells were passaged 2 times per week to maintain sub-confluent densities and were used for experiments at passage 5-30. The Human Rhinovirus 1B (HRV1B) (ATCC, Manassas, VA, Cat #VR-1645), Human Rhinovirus 14 (HRV14) (ATCC, Manassas, VA, Cat #VR-284), and Human Rhinovirus 16 (HRV16) (ATCC, Manassas, VA, Cat #BR-283) was obtained through ATCC. Viral infection was monitored by determining viability of H1-HeLa cells as described below.
as §1, with “Test molecules” for “Compounds”
(§4) The test compounds were spotted to 384-well assay plates (Greiner, Monroe, NC, Cat #781091) at 200 nL per well using an Echo acoustic dispenser (Labcyte, Sunnyvale, CA). H1-HeLa cells were harvested and suspended in DMEM (supplemented with 2% FBS and 1× Penicillin-Streptomycin-L-Glutamine) and seeded to the pre-spotted assay plates at 5,000 cells per well in 30 μL. HRV1B, HRV14, and HRV16 was diluted in DMEM (supplemented with 2% FBS and 1× Penicillin-Streptomycin-L-Glutamine) at 97.1 million Infectious Units (IU) per mL, 151 million IU per mL and 221 million IU per mL respectively. 10 μL of virus per well was added to the assay plates containing cells and compounds, for an MOI of 0.5, 1.0, and 0.25 respectively. The assay plates were incubated for 4 days at 37° C. and 5% CO2. At the end of incubation, Celltiter-Glo (Promega, Madison, WI, Cat #G7573) was prepared. The assay plates and Celltiter-Glo reagent were equilibrated to room temperature for at least 15 minutes. 40 μL per well of Celltiter-Glo reagent was added and the plates were incubated at room temperature for 15 minutes before reading the luminescence signal on an EnVision multimode plate reader (Perkin Elmer, Waltham, MA). Rupintrivir was used as positive control and DMSO was used as negative control. Values were normalized to the positive and negative controls (as 0% and 100% replication, respectively) and data was fitted using non-linear regression analysis by Gilead's dose response tool. The EC50 value for each compound was defined as the concentration reducing viral replication by 50%.

[3] = tested on: Human Rhinovirus 1B (HRV1B); test: H1-HeLa HRV-CTG 384-well assay, HRV1B, Example X; settings: Rhinovirus A, 96 h, read-out: EC50 H1-HeLa_HRV 1B_HRV-CTG 384-well Assay (per Ex. X)
Description: as §2, §3
as §1, with “Test molecules” for “Compounds”
as §4

[4] = H1-HeLa cells, HRV14 MOI 1.0, 4 days, Celltiter-Glo
[5] = H1-HeLa cells, HRV1B MOI 0.5, 4 days, Celltiter-Glo

SMILES | EC50 [1] [µM] | EC50 [2, 4] [µM] | EC50 [3, 5] [µM] | EC50 ([2]; HRV14, H1-HeLa) [µM] | EC50 ([3]; HRV1B, H1-HeLa) [µM]
N#C[C@]1(COC(=O)OC2CCOCC2)O[C@@H](c2ccc3c(N)ncnn23)[C@H](O)[C@@H]1O [Compound 12, ((2R,3S,4R,5S)-5-(4-aminopyrrolo[2,1-f][1,2,4]triazin-7-yl)-2-cyano-3,4-dihydroxytetrahydrofuran-2-yl)methyl (tetrahydro-2H-pyran-4-yl) carbonate] | > 50 | 27.2 | 10 | – | –
CC(C)(C)OC(=O)OC[C@@]1(C#N)O[C@@H](c2ccc3c(N)ncnn23)[C@H](O)[C@@H]1O [Compound 13, ((2R,3S,4R,5S)-5-(4-aminopyrrolo[2,1-f][1,2,4]triazin-7-yl)-2-cyano-3,4-dihydroxytetrahydrofuran-2-yl)methyl tert-butyl carbonate] | 12.1 | – | – | 4.67 | 3.19
CCC(CC)OC(=O)OC[C@@]1(C#N)O[C@@H](c2ccc3c(N)ncnn23)[C@H](O)[C@@H]1O [Compound 14, ((2R,3S,4R,5S)-5-(4-aminopyrrolo[2,1-f][1,2,4]triazin-7-yl)-2-cyano-3,4-dihydroxytetrahydrofuran-2-yl)methyl pentan-3-yl carbonate] | 31.6 | 44.5 | 22.9 | – | –
CC(C)COC(=O)OC[C@@]1(C#N)O[C@@H](c2ccc3c(N)ncnn23)[C@@H]2OC(=O)O[C@@H]21 [Compound 15, ((3aS,4R,6S,6aS)-6-(4-aminopyrrolo[2,1-f][1,2,4]triazin-7-yl)-4-cyano-2-oxotetrahydrofuro[3,4-d][1,3]dioxol-4-yl)methyl isobutyl carbonate] | 14.4 | 7.55 | 7.05 | – | –
CC(C)COC(=O)Nc1ncnn2c([C@@H]3O[C@](C#N)(CO)[C@@H](O)[C@H]3O)ccc12 [Compound 16, Isobutyl (7-((2S,3R,4S,5R)-5-cyano-3,4-dihydroxy-5-(hydroxymethyl)tetrahydrofuran-2-yl)pyrrolo[2,1-f][1,2,4]triazin-4-yl)carbamate] | 50 | 50 | 50 | – | –
N#C[C@]1(COC(=O)OC2CCC2)O[C@@H](c2ccc3c(N)ncnn23)[C@H](O)[C@@H]1O [Compound 17, ((2R,3S,4R,5S)-5-(4-aminopyrrolo[2,1-f][1,2,4]triazin-7-yl)-2-cyano-3,4-dihydroxytetrahydrofuran-2-yl)methyl cyclobutyl carbonate] | 24.9 | 18.4 | 6.08 | – | –
CCCCCCOC(=O)OC[C@@]1(C#N)O[C@@H](c2ccc3c(N)ncnn23)[C@H](O)[C@@H]1O [Compound 19, ((2R,3S,4R,5S)-5-(4-aminopyrrolo[2,1-f][1,2,4]triazin-7-yl)-2-cyano-3,4-dihydroxytetrahydrofuran-2-yl)methyl hexyl carbonate] | 13.6 | 7 | 3.57 | – | –
CCCCCOC(=O)OC[C@@]1(C#N)O[C@@H](c2ccc3c(N)ncnn23)[C@H](O)[C@@H]1O [Compound 20, ((2R,3S,4R,5S)-5-(4-aminopyrrolo[2,1-f][1,2,4]triazin-7-yl)-2-cyano-3,4-dihydroxytetrahydrofuran-2-yl)methyl pentyl carbonate] | 13.7 | 12.3 | 4.69 | – | –
N#C[C@]1(COC(=O)OC2CCCCC2)O[C@@H](c2ccc3c(N)ncnn23)[C@H](O)[C@@H]1O [Compound 21, ((2R,3S,4R,5S)-5-(4-aminopyrrolo[2,1-f][1,2,4]triazin-7-yl)-2-cyano-3,4-dihydroxytetrahydrofuran-2-yl)methyl cyclohexyl carbonate] | 21.9 | 23.5 | 7.87 | – | –
CCOC(=O)OC[C@@]1(C#N)O[C@@H](c2ccc3c(N)ncnn23)[C@H](O)[C@@H]1O [Compound 22, ((2R,3S,4R,5S)-5-(4-aminopyrrolo[2,1-f][1,2,4]triazin-7-yl)-2-cyano-3,4-dihydroxytetrahydrofuran-2-yl)methyl ethyl carbonate] | 26.3 | 19.9 | 9.8 | – | –
N#C[C@]1(COC(=O)OC2CC2)O[C@@H](c2ccc3c(N)ncnn23)[C@H](O)[C@@H]1O [Compound 23, ((2R,3S,4R,5S)-5-(4-aminopyrrolo[2,1-f][1,2,4]triazin-7-yl)-2-cyano-3,4-dihydroxytetrahydrofuran-2-yl)methyl cyclopropyl carbonate] | 15.4 | 11.4 | 5.32 | – | –
N#C[C@]1(COC(=O)O[C@@H]2CCOC2)O[C@@H](c2ccc3c(N)ncnn23)[C@H](O)[C@@H]1O [Compound 24, ((2R,3S,4R,5S)-5-(4-aminopyrrolo[2,1-f][1,2,4]triazin-7-yl)-2-cyano-3,4-dihydroxytetrahydrofuran-2-yl)methyl ((R)-tetrahydrofuran-3-yl) carbonate] | 29.5 | 10.2 | 6.75 | – | –
CC[C@H](C)COC(=O)OC[C@@]1(C#N)O[C@@H](c2ccc3c(N)ncnn23)[C@H](O)[C@@H]1O [Compound 28, ((2R,3S,4R,5S)-5-(4-aminopyrrolo[2,1-f][1,2,4]triazin-7-yl)-2-cyano-3,4-dihydroxytetrahydrofuran-2-yl)methyl ((S)-2-methylbutyl) carbonate] | 18.2 | 8.73 | 3.53 | – | –
N#C[C@]1(COC(=O)OCc2ccccc2)O[C@@H](c2ccc3c(N)ncnn23)[C@H](O)[C@@H]1O [Compound 29, ((2R,3S,4R,5S)-5-(4-aminopyrrolo[2,1-f][1,2,4]triazin-7-yl)-2-cyano-3,4-dihydroxytetrahydrofuran-2-yl)methyl benzyl carbonate] | 19.6 | 8.06 | 3.26 | – | –
